In the first assay the test system is HL-60. As to the kind of experiment: Cytotoxicity against human HL60 cells assessed as reduction in cell viability by MTT assay. The format is functional, cell-based.
As a reminder, the IC50 is the concentration needed to halve the response being measured. Regarding `CCn1cc(-c2nc3scc(-c4ccc(OC)cc4)n3n2)c(=O)c2cc(F)c(N3CCN(C)CC3)cc21`, the 50% inhibitory concentration (IC50) lay within 3.6 to 56.8 µM.
On to `CCn1cc(-c2nnc(SCc3nnc(-c4ccc([N+](=O)[O-])cc4)o3)[nH]2)c(=O)c2cc(F)c(N3CCN(C)CC3)cc21`, for which the IC50 was in the range of 3.8 to 35.2 µM.
For the compound `CCn1cc(-c2nnc(SCc3nnc(-c4ccc(OC)c(OC)c4)o3)[nH]2)c(=O)c2cc(F)c(N3CCN(C)CC3)cc21`, the IC50 was 3.8 to 35.2 µM.
As to `CN1CCN(c2cc3c(cc2F)c(=O)c(-c2nc4scc(-c5ccc(F)cc5)n4n2)cn3C2CC2)CC1`, the IC50 was in the range of 3.6 to 56.8 µM.
As to `CN1CCN(c2cc3c(cc2F)c(=O)c(-c2nc4scc(-c5ccccc5)n4n2)cn3C2CC2)CC1`, the IC50 fell in the range of 3.6 to 56.8 µM.
As to `CN1CCN(c2cc3c(cc2F)c(=O)c(-c2nc4scc(-c5ccc(Cl)cc5)n4n2)cn3C2CC2)CC1`, the IC50 lay within 3.6 to 56.8 µM.
Consider `CCn1cc(-c2nc3scc(-c4ccc(C)cc4)n3n2)c(=O)c2cc(F)c(N3CCN(C)CC3)cc21`, for which the IC50 was 3.6 to 56.8 µM.
Take `CCn1cc(-c2nnc(SCc3nnc(-c4ccc(F)cc4)o3)[nH]2)c(=O)c2cc(F)c(N3CCN(C)CC3)cc21`: the IC50 lay in the range of 3.8 to 35.2 µM.
On to `CCn1cc(-c2nc3scc(-c4ccc([N+](=O)[O-])cc4)n3n2)c(=O)c2cc(F)c(N3CCN(C)CC3)cc21`, for which the IC50 fell in the range of 3.6 to 56.8 µM.

A further assay concerns CAPAN-1. The experiment in a line: Cytotoxicity against human Capan1 cells assessed as reduction in cell viability by MTT assay. The class given is functional, cell-based.
Turning to `CCn1cc(-c2nc3scc(-c4ccc(OC)cc4)n3n2)c(=O)c2cc(F)c(N3CCN(C)CC3)cc21`, the IC50 lay within 3.6 to 56.8 µM.
Turning to `CCn1cc(-c2nnc(SCc3nnc(-c4ccc([N+](=O)[O-])cc4)o3)[nH]2)c(=O)c2cc(F)c(N3CCN(C)CC3)cc21`, the IC50 fell in the range of 3.8 to 35.2 µM.
`CCn1cc(-c2nnc(SCc3nnc(-c4ccc(OC)c(OC)c4)o3)[nH]2)c(=O)c2cc(F)c(N3CCN(C)CC3)cc21`: the IC50 fell in the range of 3.8 to 35.2 µM.
For `CN1CCN(c2cc3c(cc2F)c(=O)c(-c2nc4scc(-c5ccc(F)cc5)n4n2)cn3C2CC2)CC1`, the IC50 is 3.6 to 56.8 µM.
Regarding `CN1CCN(c2cc3c(cc2F)c(=O)c(-c2nc4scc(-c5ccccc5)n4n2)cn3C2CC2)CC1`, the IC50 lay within 3.6 to 56.8 µM.
Consider `CN1CCN(c2cc3c(cc2F)c(=O)c(-c2nc4scc(-c5ccc(Cl)cc5)n4n2)cn3C2CC2)CC1`, for which the IC50 was in the range of 3.6 to 56.8 µM.
The same measure, in the same setting: in the case of `CCn1cc(-c2nc3scc(-c4ccc(C)cc4)n3n2)c(=O)c2cc(F)c(N3CCN(C)CC3)cc21` it was 3.6 to 56.8 µM; in that of `CCn1cc(-c2nnc(SCc3nnc(-c4ccc(F)cc4)o3)[nH]2)c(=O)c2cc(F)c(N3CCN(C)CC3)cc21`, 3.8 to 35.2 µM; in that of `CCn1cc(-c2nc3scc(-c4ccc([N+](=O)[O-])cc4)n3n2)c(=O)c2cc(F)c(N3CCN(C)CC3)cc21`, 3.6 to 56.8 µM.

A further assay relates to L1210. As to the kind of experiment: Cytotoxicity against mouse L1210 cells assessed as reduction in cell viability by MTT assay. The format is functional, cell-based.
With `CCn1cc(-c2nc3scc(-c4ccc(OC)cc4)n3n2)c(=O)c2cc(F)c(N3CCN(C)CC3)cc21`, the IC50 was 3.6 to 56.8 µM.
On the same count and under the same terms, in the case of `CCn1cc(-c2nnc(SCc3nnc(-c4ccc([N+](=O)[O-])cc4)o3)[nH]2)c(=O)c2cc(F)c(N3CCN(C)CC3)cc21` it was 3.8 to 35.2 µM; in that of `CCn1cc(-c2nnc(SCc3nnc(-c4ccc(OC)c(OC)c4)o3)[nH]2)c(=O)c2cc(F)c(N3CCN(C)CC3)cc21`, 3.8 to 35.2 µM.
On the same count and under the same terms, in the case of `CN1CCN(c2cc3c(cc2F)c(=O)c(-c2nc4scc(-c5ccc(F)cc5)n4n2)cn3C2CC2)CC1` it was 3.6 to 56.8 µM; in that of `CN1CCN(c2cc3c(cc2F)c(=O)c(-c2nc4scc(-c5ccccc5)n4n2)cn3C2CC2)CC1`, 3.6 to 56.8 µM; in that of `CN1CCN(c2cc3c(cc2F)c(=O)c(-c2nc4scc(-c5ccc(Cl)cc5)n4n2)cn3C2CC2)CC1`, 3.6 to 56.8 µM.
Still for that read-out and setting: in the case of `CCn1cc(-c2nc3scc(-c4ccc(C)cc4)n3n2)c(=O)c2cc(F)c(N3CCN(C)CC3)cc21` it was 3.6 to 56.8 µM; in that of `CCn1cc(-c2nnc(SCc3nnc(-c4ccc(F)cc4)o3)[nH]2)c(=O)c2cc(F)c(N3CCN(C)CC3)cc21`, 3.8 to 35.2 µM.
In the case of `CCn1cc(-c2nc3scc(-c4ccc([N+](=O)[O-])cc4)n3n2)c(=O)c2cc(F)c(N3CCN(C)CC3)cc21`, the IC50 was in the range of 3.6 to 56.8 µM.

For another assay, the system named is SMMC-7721. The experiment in a line: Cytotoxicity against human SMMC7721 cells assessed as reduction in cell viability by MTT assay. The format is functional, cell-based. (In general: Tetrazolium assays rely on reduction of a dye to a coloured formazan, in cell work by metabolically active cells.)
As to `CCn1cc(-c2nc3scc(-c4ccc(OC)cc4)n3n2)c(=O)c2cc(F)c(N3CCN(C)CC3)cc21`, the IC50 lay within 3.6 to 56.8 µM.
As to `CCn1cc(-c2nnc(SCc3nnc(-c4ccc([N+](=O)[O-])cc4)o3)[nH]2)c(=O)c2cc(F)c(N3CCN(C)CC3)cc21`, the IC50 fell in the range of 3.8 to 35.2 µM.
As to `CCn1cc(-c2nnc(SCc3nnc(-c4ccc(OC)c(OC)c4)o3)[nH]2)c(=O)c2cc(F)c(N3CCN(C)CC3)cc21`, the IC50 was in the range of 3.8 to 35.2 µM.
On to `CN1CCN(c2cc3c(cc2F)c(=O)c(-c2nc4scc(-c5ccc(F)cc5)n4n2)cn3C2CC2)CC1`, for which the IC50 was in the range of 3.6 to 56.8 µM.
Turning to `CN1CCN(c2cc3c(cc2F)c(=O)c(-c2nc4scc(-c5ccccc5)n4n2)cn3C2CC2)CC1`, the IC50 lay in the range of 3.6 to 56.8 µM.
As for `CN1CCN(c2cc3c(cc2F)c(=O)c(-c2nc4scc(-c5ccc(Cl)cc5)n4n2)cn3C2CC2)CC1`, the IC50 is 3.6 to 56.8 µM.
`CCn1cc(-c2nc3scc(-c4ccc(C)cc4)n3n2)c(=O)c2cc(F)c(N3CCN(C)CC3)cc21`: the IC50 is 3.6 to 56.8 µM.
The same measure, in the same setting: in the case of `CCn1cc(-c2nnc(SCc3nnc(-c4ccc(F)cc4)o3)[nH]2)c(=O)c2cc(F)c(N3CCN(C)CC3)cc21` it was 3.8 to 35.2 µM.
On to `CCn1cc(-c2nc3scc(-c4ccc([N+](=O)[O-])cc4)n3n2)c(=O)c2cc(F)c(N3CCN(C)CC3)cc21`, for which the IC50 is 3.6 to 56.8 µM.

The test system of the next assay is Hep 3B2. As to the kind of experiment: Cytotoxicity against human Hep3B cells assessed as reduction in cell viability by MTT assay. The class given is functional, cell-based.
Turning to `CCn1cc(-c2nc3scc(-c4ccc(OC)cc4)n3n2)c(=O)c2cc(F)c(N3CCN(C)CC3)cc21`, the IC50 lay in the range of 3.6 to 56.8 µM.
Consider `CCn1cc(-c2nnc(SCc3nnc(-c4ccc([N+](=O)[O-])cc4)o3)[nH]2)c(=O)c2cc(F)c(N3CCN(C)CC3)cc21`, for which the 50% inhibitory concentration (IC50) was 3.8 to 35.2 µM.
As for `CCn1cc(-c2nnc(SCc3nnc(-c4ccc(OC)c(OC)c4)o3)[nH]2)c(=O)c2cc(F)c(N3CCN(C)CC3)cc21`, the IC50 is 3.8 to 35.2 µM.
Turning to `CN1CCN(c2cc3c(cc2F)c(=O)c(-c2nc4scc(-c5ccc(F)cc5)n4n2)cn3C2CC2)CC1`, the 50% inhibitory concentration (IC50) was 3.6 to 56.8 µM.
Turning to `CN1CCN(c2cc3c(cc2F)c(=O)c(-c2nc4scc(-c5ccccc5)n4n2)cn3C2CC2)CC1`, the 50% inhibitory concentration (IC50) was in the range of 3.6 to 56.8 µM.
As for `CN1CCN(c2cc3c(cc2F)c(=O)c(-c2nc4scc(-c5ccc(Cl)cc5)n4n2)cn3C2CC2)CC1`, the IC50 lay within 3.6 to 56.8 µM.
Turning to `CCn1cc(-c2nc3scc(-c4ccc(C)cc4)n3n2)c(=O)c2cc(F)c(N3CCN(C)CC3)cc21`, the IC50 lay within 3.6 to 56.8 µM.
As to `CCn1cc(-c2nnc(SCc3nnc(-c4ccc(F)cc4)o3)[nH]2)c(=O)c2cc(F)c(N3CCN(C)CC3)cc21`, the IC50 lay within 3.8 to 35.2 µM.
With `CCn1cc(-c2nc3scc(-c4ccc([N+](=O)[O-])cc4)n3n2)c(=O)c2cc(F)c(N3CCN(C)CC3)cc21`, the IC50 lay in the range of 3.6 to 56.8 µM.

These data come from ChEMBL document CHEMBL4613209, “Quinolone hybrids and their anti-cancer activities: An overview” (Eur J Med Chem, 2019).
